Data reported in patent US11771672B2, “Use of 2-hydroxyoleic acid for the treatment of systemic lupus erythematosus and other immune pathologies” (THE RESEARCH FOUNDATION FOR THE STATE UNIVERSITY OF NEW YORK, priority 2017, dated 2023).
Like-named read-outs stand apart in the source and are kept apart here. Blank lines part the entries; values can stand above or below the molecule they belong to.

Experiments:
SMS = conditions: cited from earlier work
splenic B cells = assay: Lysenin toxicity assay of surface SM levels in splenic B cells; type: cell-based, mouse; conditions: Sgms2-/- B cells, SM supplementation
PKCδ = assay: Western blot analysis of nuclear PKCδ (PKCδ nuclear translocation) in splenic B cells; type: cell-based, mouse
From the text: Generally speaking, PKCs are known to receive DAG on the plasma membrane for their full activation and subsequent subcellular translocation. However, in B cells, the plasma membrane DAG provider that activates PKCδ nuclear translocation is still unknown. Whether SMS2 was the DAG provider for PKCδ activation in mature B cells was therefore tested. In contrast to Sgms2^+/+ naive B cells, nuclear PKCδ was barely detectable in the Sgms2^−/− naive B cells following 24 hr culture. […] This DAG analog-dependent effect supported the involvement of SMS2-derived DAG in activation of PKCδ nuclear translocation.
To further clarify the mechanism that regulates PKCδ activation by SMS2-generated DAG, whether enhancing SMS2 activity could correspondingly increase PKCδ nuclear translocation in cultured Sgms2^+/+ B cells was tested.
293T cells were transfected with plasmid vectors to overexpress FLAG-tagged different SMS2 portions as indicated. Protein lysates from transfected 293T cells were immunoprecipitated with anti-FLAG antibody and then immunoblotted with anti-PKCδ antibody. Sample loading was controlled by inputs of cell lysates. […] Thus, SMS2 is a critical and direct PKCδ activator in mature B cells.

NZBWF1 mice = assay: Serum total IgG and anti-dsDNA IgG titers by ELISA in NZBWF1 mice (spontaneous SLE mouse model); type: in vivo; conditions: female NZBWF1 mice, four weeks
From the text: Given that PKCδ nuclear translocation was promoted by enhancing SMS2 activity with 2OHOA, whether this drug could be adopted to strengthen B cell tolerance in NZBWF1 mice that spontaneously develop SLE due to impaired tolerance caused by multiple genetic variants other than Sgms2 or Prkcd was examined. Remarkably, the expected increase in titers of anti-dsDNA IgGs in the sera of NZBWF1 mice over the same time frame as sham treated mice was impeded by 2OHOA treatment. […] This treatment started when the mouse serum anti-dsDNA IgG level reached the levels between 1,000 ng/ml and 30,000 ng/ml. The titers of serum total IgG and anti-dsDNA IgG were measured by ELISA. Shown in the graph are ratios of the IgG titers after treatment to the titers before treatment. Mann-Whitney test (2 tailed) was used to calculate p values, SEMs, and other parameters as shown in the graph and table. Data represents the results of 15 2OHOA-treated and 10 empty vehicle-treated mice.

SMS2 = biological target: T1, SMS2 (Mus musculus, UniProt Q9D4B1); assay: Elisa analysis of plasma membrane DAG levels in B cells; type: cell-based; conditions: purified Sgms2+/+ B cells
T1 construct: endogenous in cells; host or cells: purified primary splenic B cells from Sgms2+/+ mice (C57BL/6 background); Sgms2-/- B cells as knockout control
T1 sequence (Q9D4B1 1-365): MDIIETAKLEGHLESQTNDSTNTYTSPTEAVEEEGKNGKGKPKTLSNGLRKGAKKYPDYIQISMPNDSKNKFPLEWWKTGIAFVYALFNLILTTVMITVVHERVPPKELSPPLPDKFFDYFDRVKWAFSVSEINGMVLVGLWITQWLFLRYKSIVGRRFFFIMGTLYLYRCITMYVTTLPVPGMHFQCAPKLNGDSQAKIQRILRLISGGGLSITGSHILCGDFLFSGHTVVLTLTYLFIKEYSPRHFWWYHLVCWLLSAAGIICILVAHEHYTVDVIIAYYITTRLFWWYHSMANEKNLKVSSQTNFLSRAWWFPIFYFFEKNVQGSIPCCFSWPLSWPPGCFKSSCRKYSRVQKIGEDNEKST

[1] = as disclosed in U.S. Pat. No. 9,359,281

Molecule: CC/C=C\C/C=C\C/C=C\CCCCCCC(O)C(=O)O (stereo not drawn) [2-hydroxy-alpha-linoleic acid]
- stimulation of SMS activity (SMS; [1]): stimulate SMS activity

Molecule: sphingomyelin [SM]
- surface SM level (splenic B cells): Restoration of surface SM level
- nuclear PKCδ level (PKCδ; Sgms2-/- B cells, SM supplementation 24 hr): could not restore

Molecule: CCCCCCCC/C=C\CCCCCC[C@H](O)C(=O)O [(S)-2OHOA, (S)-2-hydroxyoleic acid]
- stimulation of SMS activity (SMS; compared with (R)-2-hydroxyoleic acid or a mixture of the two stereoisomers): more strongly stimulates SMS activity

Molecule: C/C=C(/C)C(=O)O[C@H]1C(C)=C[C@]23C(=O)[C@@H](C=C(CO)[C@@H](O)[C@]12O)[C@H]1[C@@H](C[C@H]3C)C1(C)C [I3A, ingenol-3-angelate]
- nuclear PKCδ (PKCδ; Sgms2+/+ B cells cultured for 30 minutes): increased nuclear PKCδ
- nuclear PKCδ (PKCδ; Sgms2-/- B cells cultured for 30 minutes): increased nuclear PKCδ

Molecule: CCCCCC/C=C\CCCCCCC(O)C(=O)O (stereo not shown) [2-hydroxypalmitoleic acid]
- stimulation of SMS activity (SMS; [1]): stimulate SMS activity

Molecule: CCCCCCCCCCCCCC(=O)O[C@@H]1[C@@H](C)[C@@]2(O)[C@@H](C=C(CO)C[C@]3(O)C(=O)C(C)=C[C@@H]23)[C@@H]2C(C)(C)[C@]12OC(C)=O [PMA]
- PKCδ nuclear translocation (PKCδ; Sgms2+/+ B cells, PMA): promotion of PKCδ nuclear translocation
- PKCδ nuclear translocation (PKCδ; Sgms2-/- B cells, PMA): but not in Sgms2^−/− B cells

Molecule: CCCCC/C=C\C/C=C\C/C=C\CCCC(O)C(=O)O (stereo not shown) [2-hydroxy-gamma-linoleic acid]
- stimulation of SMS activity (SMS; [1]): stimulate SMS activity

Molecule: CCCCC/C=C\C/C=C\CCCCCCC(O)C(=O)O (stereo not shown) [2-hydroxylinoleic acid]
- stimulation of SMS activity (SMS; [1]): stimulate SMS activity

- SMS2-derived DAG level (plasma membrane DAG) (SMS2): increased
Molecule: CCCCCCCC/C=C\CCCCCCC(O)C(=O)O (stereo not shown) [2OHOA, 2-hydroxyoleic acid]
- increase in titers of anti-dsDNA IgGs in the sera (NZBWF1 mice; oral gavage 400 mg/kg per day, vs sham treated mice): impeded
- total serum IgG titers (NZBWF1 mice; oral gavage 400 mg/kg/day): without reducing the total serum IgG titers
- PKCδ nuclear translocation (PKCδ; Sgms2-/- B cells, 2OHOA-treated): but not in Sgms2^−/− B cells
- PKCδ nuclear translocation (PKCδ; purified Sgms2+/+ B cells, 2OHOA-treated): increased
